Where “and” joins values, the source holds several entries; their conditions need not be identical. Equal entries are not always repeated.
How the values were obtained:
[1] = biological target: T1, acetylcholinesterase enzyme (Electrophorus electricus, UniProt O42275); assay: Inhibition of acetylcholinesterase by chlorpyrifos oxon in the Example 1 sensor (graphite; PEDOT layer with PVA layer, d1); details: Example 1 sensor (d1), 100 mV
[2] = biological target: T1, acetylcholinesterase enzyme; assay: Inhibition of acetylcholinesterase by chlorpyrifos oxon in the Example 2 sensor (graphite; PEDOT and PVA conductive gel, d2); details: Example 2 sensor (d2), 100 mV
[3] = biological target: T1, acetylcholinesterase enzyme; assay: Inhibition of acetylcholinesterase by chlorpyrifos oxon in the Example 4 sensor (silver intermediate layer; graphite; PEDOT layer with PVA layer, d1); details: Example 4 sensor (silver + d1), 100 mV
[4] = biological target: T1, acetylcholinesterase enzyme; assay: Inhibition of acetylcholinesterase by chlorpyrifos oxon in the Example 3 sensor (graphite; cobalt phthalocyanine intermediate layer; PEDOT and PVA, d2); details: Example 3 sensor (CoPh + d2), 100 mV

T1 sequence (O42275 24-633): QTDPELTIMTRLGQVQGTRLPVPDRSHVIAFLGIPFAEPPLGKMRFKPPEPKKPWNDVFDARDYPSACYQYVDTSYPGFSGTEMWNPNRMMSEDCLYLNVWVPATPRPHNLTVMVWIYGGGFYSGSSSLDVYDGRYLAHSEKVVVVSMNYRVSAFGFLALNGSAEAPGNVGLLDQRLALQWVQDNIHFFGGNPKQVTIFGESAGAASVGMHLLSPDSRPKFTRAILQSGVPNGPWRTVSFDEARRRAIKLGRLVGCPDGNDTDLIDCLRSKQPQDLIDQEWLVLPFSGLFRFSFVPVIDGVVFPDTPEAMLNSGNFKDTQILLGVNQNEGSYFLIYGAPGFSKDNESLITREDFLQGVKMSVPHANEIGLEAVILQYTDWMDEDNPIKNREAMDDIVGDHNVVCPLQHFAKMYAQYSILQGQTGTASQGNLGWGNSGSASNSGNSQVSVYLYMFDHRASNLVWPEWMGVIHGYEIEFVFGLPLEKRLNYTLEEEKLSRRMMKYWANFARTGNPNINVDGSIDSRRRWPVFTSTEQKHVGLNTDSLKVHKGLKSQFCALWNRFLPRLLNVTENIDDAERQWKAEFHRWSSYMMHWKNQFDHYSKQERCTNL

chlorpyrifos oxon
% of inhibition in the presence of pesticide ([1]; chlorpyrifos oxon 1 · 10^−9 M): 46.82%
% of inhibition in the presence of pesticide ([1]; chlorpyrifos oxon 2 · 10^−10 M): 7% and 7.21%
% of inhibition in the presence of pesticide ([1]; chlorpyrifos oxon 3 · 10^−9 M): 69.20%
% of inhibition in the presence of pesticide ([1]; chlorpyrifos oxon 3 · 10^−10 M): 16.11%
% of inhibition in the presence of pesticide ([1]; chlorpyrifos oxon 4 · 10^−10 M): 22.41%
% of inhibition in the presence of pesticide ([1]; chlorpyrifos oxon 5 · 10^−10 M): 27.09%
% of inhibition in the presence of pesticide ([1]; chlorpyrifos oxon 9 · 10^−10 M): 44.54%
% of inhibition in the presence of pesticide ([2]; chlorpyrifos oxon 1 · 10^−9 M): 41.71%
% of inhibition in the presence of pesticide ([2]; chlorpyrifos oxon 3 · 10^−9 M): 61.15%
% of inhibition in the presence of pesticide ([2]; chlorpyrifos oxon 3 · 10^−10 M): 10% and 10.09%
% of inhibition in the presence of pesticide ([2]; chlorpyrifos oxon 4 · 10^−10 M): 15.31%
% of inhibition in the presence of pesticide ([2]; chlorpyrifos oxon 5 · 10^−10 M): 22.19%
% of inhibition in the presence of pesticide ([2]; chlorpyrifos oxon 9 · 10^−10 M): 39.75%
% of inhibition in the presence of pesticide ([3]; chlorpyrifos oxon 1 · 10^−9 M): 49.50%
% of inhibition in the presence of pesticide ([3]; chlorpyrifos oxon 2 · 10^−10 M): 8% and 8.28%
% of inhibition in the presence of pesticide ([3]; chlorpyrifos oxon 3 · 10^−9 M): 72.23%
% of inhibition in the presence of pesticide ([3]; chlorpyrifos oxon 3 · 10^−10 M): 19.14%
% of inhibition in the presence of pesticide ([3]; chlorpyrifos oxon 4 · 10^−10 M): 24.51%
% of inhibition in the presence of pesticide ([3]; chlorpyrifos oxon 5 · 10^−10 M): 30.10%
% of inhibition in the presence of pesticide ([3]; chlorpyrifos oxon 9 · 10^−10 M): 47.55%
% of inhibition in the presence of pesticide ([4]; chlorpyrifos oxon 1 · 10^−9 M): 52.36%
% of inhibition in the presence of pesticide ([4]; chlorpyrifos oxon 2 · 10^−10 M): 9.82%
% of inhibition in the presence of pesticide ([4]; chlorpyrifos oxon 3 · 10^−9 M): 74.80%
% of inhibition in the presence of pesticide ([4]; chlorpyrifos oxon 3 · 10^−10 M): 10.70%
% of inhibition in the presence of pesticide ([4]; chlorpyrifos oxon 4 · 10^−10 M): 32.51%
% of inhibition in the presence of pesticide ([4]; chlorpyrifos oxon 5 · 10^−10 M): 31.46%
% of inhibition in the presence of pesticide ([4]; chlorpyrifos oxon 9 · 10^−10 M): 49.18%

Reference: patent publication US20120181173A1, “ELECT[…] FOR THE DETECTION OF ANALYTES IN LIQUID MEDIA” (priority 2009, published 2012)
